According to ChEMBL document CHEMBL1147492, “Small molecule biaryl FSH receptor agonists. Part 1: Lead discovery via encoded combinatorial synthesis” (Bioorg Med Chem Lett, 2004):

Target: T1, Follicle-stimulating hormone receptor (Homo sapiens, UniProt P23945)
T1 sequence (P23945 whole entry): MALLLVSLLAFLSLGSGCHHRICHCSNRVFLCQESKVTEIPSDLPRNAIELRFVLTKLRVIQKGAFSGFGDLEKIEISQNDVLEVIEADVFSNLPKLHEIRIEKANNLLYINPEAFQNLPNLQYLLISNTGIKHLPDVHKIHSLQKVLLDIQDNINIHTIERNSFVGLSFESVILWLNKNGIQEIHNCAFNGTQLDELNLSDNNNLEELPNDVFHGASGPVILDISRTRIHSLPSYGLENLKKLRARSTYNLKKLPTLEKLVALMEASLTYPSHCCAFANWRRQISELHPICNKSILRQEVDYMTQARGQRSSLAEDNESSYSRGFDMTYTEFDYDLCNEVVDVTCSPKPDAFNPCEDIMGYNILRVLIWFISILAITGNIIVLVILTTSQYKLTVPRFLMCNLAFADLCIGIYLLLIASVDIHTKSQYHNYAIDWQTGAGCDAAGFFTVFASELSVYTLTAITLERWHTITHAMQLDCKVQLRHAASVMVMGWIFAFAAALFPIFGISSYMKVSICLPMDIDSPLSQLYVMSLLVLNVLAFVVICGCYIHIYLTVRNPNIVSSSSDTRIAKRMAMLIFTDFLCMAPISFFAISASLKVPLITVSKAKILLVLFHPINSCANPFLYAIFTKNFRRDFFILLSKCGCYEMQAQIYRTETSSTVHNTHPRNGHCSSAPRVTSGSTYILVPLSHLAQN
Assay: Agonistic activity against Follicle stimulating hormone receptor expressed in chinese hamster ovary cells(CHO)
Format: functional, cell-based

Structure (SMILES) | EC50
CCCCCCNC(=O)CN1CC(=O)N(C)[C@@H](Cc2ccc(-c3cc(OC)c(OC)c(OC)c3)cc2)C1=O | 3000 nM
CCCCCCNC(=O)CN1C(=O)C(Cc2ccc(-c3ccc(CN(CCCC)C(=O)NC)cc3)cc2)N(C)C1=O (stereo not given) | 2500 nM
CCCCOC(=O)N(CC(=O)NCC1CC1)Cc1ccc(-c2ccccc2CN(CCCC)C(C)=O)cc1 | 3900 nM

Molecules with a lower EC50, results first:

EC50 | Structure (SMILES)
1700 nM | CCCCCNC(=O)CN1CC(=O)N(C)[C@@H](Cc2ccc(-c3cccc(CN(CCCC)C(=O)NC)c3)cc2)C1=O
260 nM | CCCCN(Cc1cccc(-c2ccc(C(=O)NC3CCCCN(CC(=O)NCCc4ccc(Cl)cc4)C3=O)cc2)c1)C(=O)NC (stereo not given)
